# Results published in patent US10035799B2, “COMT inhibiting methods and compositions” (Lieber Institute for Brain Development, priority 2015, dated 2018).
# Biological target: T1, catechol-O-methyltransferase (COMT) (Homo sapiens, UniProt P21964)
# T1 construct: M51A variant) was expressed in HEK 293F cells
# T1 sequence (P21964 52-271 limits assumed): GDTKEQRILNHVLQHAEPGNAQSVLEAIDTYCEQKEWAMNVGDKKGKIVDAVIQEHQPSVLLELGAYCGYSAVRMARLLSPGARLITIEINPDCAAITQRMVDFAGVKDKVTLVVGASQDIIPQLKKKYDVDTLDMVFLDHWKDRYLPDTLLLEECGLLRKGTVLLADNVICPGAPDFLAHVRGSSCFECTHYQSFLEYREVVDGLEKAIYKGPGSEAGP
# Experiment: COMT inhibition assay (HTRF, production of S-adenosyl homocysteine)
# Type: biochemical
# Conditions: recombinant human COMT, HTRF SAH production; MB-COMT or S-COMT not stated for Table 1
# Description: The ability of compounds to inhibit the activity of catechol-O-methyltransferase (COMT) was determined by a homogenous time-resolved fluorescent (HTRF) assay (Lina et al, 2012; kit from CisBio, Codolet, France). This assay measures the production of S-adenosyl homocysteine (SAH) from the methyl donor S-adenosyl methionine. Recombinant human membrane bound COMT (MB-COMT; M51A variant) was expressed in HEK 293F cells using 293Fectin (Life Technologies, Gent, Belgium) and membranes prepared. The membranes were re-suspended in buffer (20 mM Tris/HCl pH 7; 10 mM glycerol; 2 mM MgCl2; 10 mM NaCl), aliquoted and stored at −80° C. Recombinant human soluble COMT(S-COMT), Va1158 variant and a hexa-His tag on the N-terminus, was purified using Ni-NTA chromatography, the His tag removed and stored in buffer as above.
# For the human MB-COMT assay, membranes (62 ng/well) were incubated with SAM (20 μM final, CisBio) and dopamine (1.5 μM final; Sigma H8502, Diegem, Belgium) in the presence or absence of varying concentrations (typically 10 concentrations ranging from 10 μM to 0.1 nM) of compound for 40 min at 37° C. in 384-well microtitre plates (10 μl per well final volume). The reaction was terminated by the addition of acylation buffer and the amount of SAH produced determined according to manufacturer's instructions. Specific inhibition as that inhibited by a high concentration of tolcapone (10 μM; synthesised at UCB) and all experiments were validated using a control curve to tolcapone.
# The human S-COMT assay was performed as above except that 0.15 ng enzyme/well was incubated with SAM (20 μM final) and dopamine (100 μM final) for 15 min at 37° C. and SAH production determined.
# HTRF readings were performed using a Perkin Elmer Envision and results expressed as concentration of SAH produced using a standard curve. Results were analysed using non-linear regression to the 4-parameter logistic equation and pIC50 (−log 10 concentration of drug which inhibits enzyme activity/SAH production by 50%) determined.
row,SMILES,"Activity range (pIC50, COMT inhibition)"
1,"O=S(=O)(c1ccc(O)c2ncccc12)N1CCC(Cc2ccccc2)CC1 [Example 84, 5-[(4-benzyl-1-piperidyl)sulfonyl]quinolin-8-ol]",+++ (a pIC50 of above about 7)
2,"Cc1ccc(C)c(N2CCN(S(=O)(=O)c3ccc(O)c4ncccc34)CC2)c1 [Example 93, 5-[4-(2,5-dimethylphenyl)piperazin-1-yl]sulfonylquinolin-8-ol]",++ (a pIC50 of from about great than 6 to 7)
3,"O=S(=O)(c1ccc(O)c2ncccc12)C1CCCCC1 [Example 30, 5-cyclohexylsulfonylquinolin-8-ol]",+++ (a pIC50 of above about 7)
4,"CN(Cc1ccc2ccccc2c1)S(=O)(=O)c1ccc(O)c2ncccc12 [Example 55, 8-hydroxy-N-methyl-N-(2-naphthylmethyl)quinoline-5-sulfonamide]",++ (a pIC50 of from about great than 6 to 7)
5,"CC1CNCCN1S(=O)(=O)c1ccc(O)c2ncccc12 (stereo not drawn) [Example 106, 5-(2-methylpiperazin-1-yl)sulfonylquinolin-8-ol]",+ (a pIC50 of from about 4.5 to 6)
6,"O=C1NCN(c2ccccc2)C12CCN(S(=O)(=O)c1ccc(O)c3ncccc13)CC2 [Example 87, 8-[(8-hydroxy-5-quinolyl)sulfonyl]-1-phenyl-1,3,8-triazaspiro[4.5]decan-4-one]",+++ (a pIC50 of above about 7)
7,"O=S(=O)(c1ccc(O)c2ncccc12)N1CCN(c2ccccc2-c2ccccc2)CC1 [Example 92, 5-[4-(2-phenylphenyl)piperazin-1-yl]sulfonylquinolin-8-ol]",++ (a pIC50 of from about great than 6 to 7)
8,"O=S(=O)(c1ccc(O)c2ncccc12)N1CCCC1c1ccccc1 (stereo not drawn) [Example 58, 5-(2-phenylpyrrolidin-1-yl)sulfonylquinolin-8-ol]",+++ (a pIC50 of above about 7)
9,"O=S(=O)(c1ccc(O)c2ncccc12)N1CCCCC1c1ccccc1 (stereo not drawn) [Example 61, 5-[(2-phenyl-1-piperidyl)sulfonyl]quinolin-8-ol]",++ (a pIC50 of from about great than 6 to 7)
10,"CCN(Cc1ccccc1)S(=O)(=O)c1ccc(O)c2ncccc12 [Example 56, N-benzyl-N-ethyl-8-hydroxy-quinoline-5-sulfonamide]",+++ (a pIC50 of above about 7)
11,"CN(C)CCN(Cc1ccccc1)S(=O)(=O)c1ccc(O)c2ncccc12 [Example 57, N-benzyl-N-(2-dimethylaminoethyl)-8-hydroxy-quinoline-5-sulfonamide]",++ (a pIC50 of from about great than 6 to 7)
12,"CCN(CC)S(=O)(=O)c1ccc(O)c2ncccc12 [Example 68, N,N-diethyl-8-hydroxy-quinoline-5-sulfonamide]",++ (a pIC50 of from about great than 6 to 7)
13,"C[C@H](c1ccccc1)N(C)S(=O)(=O)c1cc(Br)c(O)c2ncccc12 [Example 120, 7-bromo-8-hydroxy-N-methyl-N-[(1R)-1-phenylethyl]quinoline-5-sulfonamide]",+ (a pIC50 of from about 4.5 to 6)
14,"O=S(=O)(c1cc(Br)c(O)c2ncccc12)N1CCN(Cc2ccc(F)cc2)CC1 [Example 121, 7-bromo-5-[4-[(4-fluorophenyl)methyl]piperazin-1-yl]sulfonyl-quinolin-8-ol]",+ (a pIC50 of from about 4.5 to 6)
15,"Cc1ccc(S(=O)(=O)c2cc(F)c(O)c3ncccc23)cc1 [Example 110, 7-fluoro-5-(p-tolylsulfonyl)quinolin-8-ol]",+++ (a pIC50 of above about 7)
16,"Cc1cccc(N2CCN(S(=O)(=O)c3ccc(O)c4ncccc34)CC2)c1C [Example 100, 5-[4-(2,3-dimethylphenyl)piperazin-1-yl]sulfonylquinolin-8-ol]",++ (a pIC50 of from about great than 6 to 7)
17,"O=S(=O)(c1ccc(O)c2ncccc12)C1CCNCC1 [Example 34, 5-(4-piperidylsulfonyl)quinolin-8-ol]",++ (a pIC50 of from about great than 6 to 7)

row,SMILES,"Activity range (pIC50, COMT inhibition)"
1,"O=S(=O)(c1cc(Cl)c(O)c2ncccc12)N1CCN(Cc2ccc(F)cc2)CC1 [Example 112, 7-chloro-5-[4-[(4-fluorophenyl)methyl]piperazin-1-yl]sulfonyl-quinolin-8-ol]",+ (a pIC50 of from about 4.5 to 6)
2,"O=S(=O)(c1cc(F)c(O)c2ncccc12)N1CCCC1 [Example 113, 7-fluoro-5-pyrrolidin-1-ylsulfonyl-quinolin-8-ol]",+++ (a pIC50 of above about 7)
3,"O=S(=O)(c1cccc(-c2ccncc2)c1)c1ccc(O)c2ncccc12 [Example 23, 5-[3-(4-pyridyl)phenyl]sulfonylquinolin-8-ol]",+++ (a pIC50 of above about 7)
4,"O=S(=O)(c1ccc(O)c2ncccc12)N1CC(Oc2ccc(OC(F)(F)F)cc2)C1 [Example 99, 5-[3-[4-(trifluoromethoxy)phenoxy]azetidin-1-yl]sulfonylquinolin-8-ol]",++ (a pIC50 of from about great than 6 to 7)
5,"Cc1ccc(S(=O)(=O)c2ccc(O)c3ncccc23)cc1C [Example 3, 5-(3,4-dimethylphenyl)sulfonylquinolin-8-ol]",+++ (a pIC50 of above about 7)
6,"CN(CCc1ccccc1)S(=O)(=O)c1ccc(O)c2ncccc12 [Example 48, 8-hydroxy-N-methyl-N-phenethyl-quinoline-5-sulfonamide]",+++ (a pIC50 of above about 7)
7,"O=S(=O)(c1ccc2ccccc2c1)c1ccc(O)c2ncccc12 [Example 12, 5-(2-naphthylsulfonyl)quinolin-8-ol]",+++ (a pIC50 of above about 7)
8,"CN(Cc1ccccc1)S(=O)(=O)c1ccc(O)c2ncccc12 [Example 45, N-benzyl-8-hydroxy-N-methylquinoline-5-sulfonamide]",+++ (a pIC50 of above about 7)
9,"O=S(=O)(c1ccc(C(F)(F)F)cc1)c1ccc(O)c2ncccc12 [Example 11, 5-[4-(trifluoromethyl)phenyl]sulfonylquinolin-8-ol]",+++ (a pIC50 of above about 7)
10,"O=S(=O)(c1cc(F)c(O)c2ncccc12)N1CCN(Cc2ccc(F)cc2)CC1 [Example 122, 7-fluoro-5-[4-[(4-fluorophenyl)methyl]piperazin-1-yl]sulfonyl-quinolin-8-ol]",++ (a pIC50 of from about great than 6 to 7)
11,"O=S(=O)(c1cccc(-c2ccccc2)c1)c1ccc(O)c2ncccc12 [Example 6, 5-(3-phenylphenyl)sulfonylquinolin-8-ol]",+++ (a pIC50 of above about 7)
12,"Cc1cc(S(=O)(=O)N2CCCC2)c2cccnc2c1O [Example 111, 7-methyl-5-pyrrolidin-1-ylsulfonyl-quinolin-8-ol]",+++ (a pIC50 of above about 7)
13,"O=S(=O)(c1ccc(O)c2ncccc12)N1CCCC1c1ccc(F)cc1 (stereo not drawn) [Example 74, 5-[2-(4-fluorophenyl)pyrrolidin-1-yl]sulfonylquinolin-8-ol]",+++ (a pIC50 of above about 7)
14,"COc1ccc(C2CCCN2S(=O)(=O)c2ccc(O)c3ncccc23)cc1 (stereo not drawn) [Example 77, 5-[2-(4-methoxyphenyl)pyrrolidin-1-yl]sulfonylquinolin-8-ol]",+++ (a pIC50 of above about 7)
15,"CN(Cc1cccnc1)S(=O)(=O)c1ccc(O)c2ncccc12 [Example 54, 8-hydroxy-N-methyl-N-(3-pyridylmethyl)quinoline-5-sulfonamide]",+++ (a pIC50 of above about 7)
16,"CN(Cc1cccc(Cl)c1)S(=O)(=O)c1ccc(O)c2ncccc12 [Example 53, N-[(3-chlorophenyl)methyl]-8-hydroxy-N-methyl-quinoline-5-sulfonamide]",+++ (a pIC50 of above about 7)
